Results published in US4206215A, “Antimicrobial bis-[4-(substituted-amino)-1-pyridinium]alkanes” (Sterling Drug Inc., priority 1977, dated 1980).

Experiments:
S. Aureus Smith = assay: In vitro antibacterial activity, MIC (modified Autotiter method); type: cell-based, Staphylococcus aureus; conditions: Staphylococcus aureus, 20 h, 18-20 hours at 37° C.; read-out: MIC S. Aureus Smith
In short: (§1)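 Final drug range: 500 → 0.06 mcg./ml., twofold decrements, in inoculated semisynthetic glucose medium. Dilution performed by Autotiter transfer loops in sterile water from a 1,000 mcg./ml. compound solution.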

K. pneum. 39645 = assay: as above; type: cell-based, Klebsiella pneumoniae; conditions: Klebsiella pneumoniae, 20 h, 18-20 hours at 37° C.; read-out: MIC K. pneum. 39645
In short: as §1

P. mirab. MGH-1 = assay: as above; type: cell-based, Proteus mirabilis; conditions: 18-20 hours at 37° C.; for MIC: Proteus mirabilis, 20 h, read-out: MIC P. mirab. MGH-1
In short: as §1

S. pyogen. C203 = assay: as above; type: cell-based, Streptococcus pyogenes; conditions: 18-20 hours at 37° C.; for MIC: Streptococcus pyogenes, 20 h, read-out: MIC S. pyogen. C203
In short: as §1

C. albicans 10231 = assay: In vitro antifungal activity, MIC (modified Autotiter method); type: cell-based, Candida albicans; conditions: Candida albicans, 10231, 20 h, 18-20 hours at 37° C.; read-out: MIC C. albicans 10231
In short: as §1

C. albicans Wisc. = assay: as above; type: cell-based, Candida albicans; conditions: 18-20 hours at 37° C.; for MIC: Candida albicans, 20 h, read-out: MIC C. albicans Wisc.
In short: as §1

[1] = tested on: Streptococcus mutans OMZ-61; assay: Dental plaque-preventive effectiveness in the presence of sterile human saliva (50%); type: cell-based; conditions: for Dental Plaque Preventive Activity in 50% saliva Minimum Effective Conc. (%): 50% sterile human saliva
In short: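 Hydroxylapatite or enamel pieces soaked in 1.0% or 0.1% compound solution (two 1-min soaks with air drying, 5-min water rinse), then incubated anaerobically at 37° C with S. mutans in sucrose beef-extract medium; cycle repeated for 48 h total. Plaque scored by red dye staining; minimum effective concentration found by lower doses.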

[2] = tested on: Herpes simplex type 2 virus; assay: Virucidal activity in vitro (plaque inhibition test); type: cell-based; conditions: 2 mg. of test compound on growth medium
Description: Virucidal activity of representative examples against Herpes simplex type 2 virus was determined in vitro employing a procedure similar to the plaque inhibition test for detection of specific inhibitors of DNA-containing viruses published by E. C. Herrmann, Jr., Proc. Soc. Exp. Biol. Med. 107, 142 (1961) wherein 2 mg. of the test compound was placed on the surface of the growth medium.

SMILES | MIC (S. Aureus Smith) [µg/mL] | MIC (K. pneum. 39645) [µg/mL] | MIC (P. mirab. MGH-1) [µg/mL] | MIC S. pyogen. C203 (S. pyogen. C203) [µg/mL] | MIC (C. albicans 10231) [µg/mL] | MIC (C. albicans Wisc.) [µg/mL] | Dental Plaque Preventive Activity in 50% saliva Minimum Effective Conc. (%) [1] | Virucidal activity against Herpes simplex type 2 virus [2] | MIC (S. pyogen. C203) [µg/mL] | MIC P. mirab. MGH-1 (P. mirab. MGH-1; listed as SC) [µg/mL] | MIC C. albicans Wisc. (C. albicans Wisc.; listed as SC) [µg/mL] | Plaque formation in 50% saliva plaque test (footnote 1) ([1]; 0.005%, 50% saliva) | Bacterial growth in 50% saliva plaque test (footnote 1) ([1]; 0.05% concentration, 50% saliva) | MIC P. mirab. MGH-1 (P. mirab. MGH-1) [µg/mL]
CCCCCCCNc1cc[n+](CCCCCCCCCCCC[n+]2ccc(NCCCCCCC)cc2)cc1 [Example 3, 1,12-bis-[4-(heptylamino)-1-pyridinium]dodecane dibromide] | 0.39 | 3.13 | 3.13 | 0.39 | 1.56 | 3.13 | 0.1% | active |  |  |  |  |  | 
CCCCC(CC)CNc1cc[n+](CCCCCCCCCC[n+]2ccc(NCC(CC)CCCC)cc2)cc1 (stereo not drawn) [Example 58, 1,10-bis-[4-(2-ethylhexylamino)-1-pyridinium]decane dibromide] | 0.24 | 3 | 12.1 |  | 3 | 1.5 | Ca. 0.005% | active | 1.95 |  |  |  |  | 
CCCCCCNc1cc[n+](CCCCCCCCCCCCCC[n+]2ccc(NCCCCCC)cc2)cc1 [Example 5C, 1,14-bis-[4-(hexylamino)-1-pyridinium]tetradecane dibromide] | 0.38 | 0.76 |  |  | 1.5 |  | 0.05% | active | 1 | 1.5 | 0.76 | plaque formed | No bacterial growth | 
CCCCCCCCNc1cc[n+](CCCCCCCC[n+]2ccc(NCCCCCCCC)cc2)cc1 [Example 11, 1,8-bis-[4-(octylamino)-1-pyridinium]octane dibromide] | 0.25 | 1.95 | 7.8 |  | 1 | 1 | 0.05% | active | 1 |  |  |  |  | 
CCCCCCCNc1cc[n+](CCCCCCCCC[n+]2ccc(NCCCCCCC)cc2)cc1 [Example 24, 1,9-bis-[4-(heptylamino)-1-pyridinium]nonane dibromide] | 0.25 | 1.95 |  |  | 1 | 1 | Ca. 0.005% | active | 0.5 |  |  |  |  | 15.6
